These are literature values, as cited in patent US20200383964A1, “MITOCHONDRIA TARGETING, MPTP REGULATION, AND THE REDUCTION OF MITOCHONDRIAL REACTIVE SPECIES” (priority 2017, published 2020).

The subject of this series is mitochondrial permeability transition pore (MPTP).

For the compound `CC(=O)C=O` [Methylglyoxal, methylglyoxal], the “suppression of permeability transition” value (incubation with isolated mitochondria, covalent binding to the MPTP) is “complete suppression”. In addition, under “isolated mitochondria”, the “time to suppression of the permeability transition” value is at most 5 min.
